From US11716974B2, “Human liver chimeric mouse with deficient P450 oxidoreductase” (Baylor College of Medicine, priority 2016, dated 2023)

Key:
[1] = Liver enzymes after gefitinib; settings: mouse, in vivo
[2] = Gefitinib metabolites M4 and M28 in feces of humanized (Hu-PIRF) and control mice (mass spectrometry); type: in vivo, human liver chimeric mouse
Protocol: Feces samples were weighted and homogenized in water (100 mg feces in 1,000 μl of H2O). Subsequently, 300 μl of methanol was added to 100 μl of the resulting mixture, followed by centrifugation at 15,000 g for 20 min. The supernatant was transferred to a new Eppendorf vial for a second centrifugation (15,000 g for 20 min). The final concentration of agomelatine is 2 μM. Each supernatant was transferred to an auto sampler vial for analysis (described below).
The column temperature was maintained at 40° C. The flow rate of was 0.3 mL/min with a gradient ranging from 2% to 98% aqueous acetonitrile containing 0.1% formic acid in a 15-min run. Quadrupole time of flight mass spectrometry (QTOFMS) was operated in positive mode with electrospray ionization. Ultra-highly pure nitrogen was applied as the drying gas (12 L/min) and the collision gas. The drying gas temperature was set at 325° C. and nebulizer pressure was kept at 35 psi. The capillary voltages were set at 3.5 kV. During mass spectrometry, real time mass correction and accurate mass were achieved by continuously measuring standard reference ions at m/z 121.0508, 922.0098 in the positive mode. Mass chromatograms and mass spectra were acquired by MassHunter Workstation data Acquisition software (Agilent, Santa Clara, Calif.) in centroid and profile formats from m/z 50 to 1000. The acquisition rate was set as 1.5 spectra per second. […] Meanwhile, the quality control samples were performed every 10 samples in the process of the sample running. Due to the authentic compounds of metabolites not available, the metabolite identification was based on their exact mass and MS/MS fragments. The chromatograms and relative abundance of metabolite were performed on Qualitative Analysis software (Agilent, Santa Clara, Calif.). The relative abundance was evaluated based on integrated peak area of each metabolite.

[3] = Troglitazone phase II metabolites in livers of humanized and non-humanized mice with and without Por and Ugdh deletion; type: in vivo, mouse; settings: liver
Protocol: Percentage of liver glucuronidated and sulfated metabolites detected in humanized livers 2 hours after i.p injection of troglitazone (600 mg/kg). FIG. 25A. Humanized FRG mice. FIG. 25B. Humanized FRG mice after murine Por and Ugdh deletion. FIG. 25C. Non-humanized FRG mice. FIG. 25D. Non-humanized FRG mice with Por and Ugdh genes deleted. Sulfate metabolites of troglitazone in red and glucuronide conjugates in blue.
Troglitazone metabolites (two hours after i.p. injection of 600 mg/kg troglitazone) in the livers of humanized and non-humanized FRG mice with and without Por and Ugdh deletion was analyzed.

Row | SMILES | elevation of liver enzymes [1] | level of metabolite M4 in feces ([2]; murine Por-deficient Hu-PIRF mice versus Por-expressing humanized and non-humanized control mice) | level of human-specific metabolite M28 in feces ([2]; murine Por-deficient Hu-PIRF mice versus control groups) | glucuronide conjugates in non-humanized livers of control mice versus humans or humanized mice ([3]; two hours after i.p. injection of 600 mg/kg) | glucuronide conjugates upon deletion of ugdh and por ([3]; non-humanized and humanized mice, two hours after i.p. 600 mg/kg)
1 | COc1cc2ncnc(Nc3ccc(F)c(Cl)c3)c2cc1OCCCN1CCOCC1 [gefitinib] | did not cause any elevation of liver enzymes | highest level | highest level |  | 
2 | Cc1c(C)c2c(c(C)c1O)CCC(C)(COc1ccc(CC3SC(=O)NC3=O)cc1)O2 (centres unmarked) [troglitazone] |  |  |  | much higher amounts | reduced significantly
